Assay results published in ChEMBL document CHEMBL4376806, “Antibiotic Adjuvants: Make Antibiotics Great Again!” (2019).
≈ marks a conversion by molar mass, not a printed value.

What was measured:
[1] = tested on: Klebsiella aerogenes; assay: Inhibition of AcrAB-TolC in Enterobacter aerogenes EA3 assessed as potentiation of norfloxacin-induced antibacterial activity by measuring norfloxacin MIC at 0.2 mM incubated for 18 hrs (reference value: 256 ug/ml)
[2] = tested on: Klebsiella aerogenes; assay: Inhibition of AcrAB-TolC in Enterobacter aerogenes EA3 assessed as potentiation of tetracycline-induced antibacterial activity by measuring tetracycline MIC at 0.2 mM incubated for 18 hrs (reference value: 8 ug/ml)
[3] = tested on: Klebsiella aerogenes; assay: Inhibition of AcrAB-TolC in Enterobacter aerogenes EA3 assessed as potentiation of chloramphenicol-induced antibacterial activity by measuring chloramphenicol MIC at 0.2 mM incubated for 18 hrs (reference value: 512 ug/ml)
[4] = biological target: T1, MexAB/OprM (Pseudomonas aeruginosa (strain ATCC 15692 / DSM 22644 / CIP 104116 / JCM14847 / LMG 12228 / 1C / PRS 101 / PAO1)) (UniProt P52477+P52002+Q51487); assay: Inhibition of MexAB/OprM in Pseudomonas aeruginosa PAO1 assessed as potentiation of trimethoprim-induced antibacterial activity by measuring trimethoprim MIC at 128 ug/ml incubated for 18 hrs (reference value: 128 ug/ml)
[5] = biological target: T1, MexAB/OprM (Pseudomonas aeruginosa (strain ATCC 15692 / DSM 22644 / CIP 104116 / JCM14847 / LMG 12228 / 1C / PRS 101 / PAO1)); assay: Inhibition of MexAB/OprM in Pseudomonas aeruginosa PAO1 assessed as potentiation of tetracycline-induced antibacterial activity by measuring tetracycline MIC at 128 ug/ml incubated for 18 hrs (reference value: 8 ug/ml)
[6] = biological target: T1, MexAB/OprM (Pseudomonas aeruginosa (strain ATCC 15692 / DSM 22644 / CIP 104116 / JCM14847 / LMG 12228 / 1C / PRS 101 / PAO1)); assay: Inhibition of MexAB/OprM in Pseudomonas aeruginosa PAO1 assessed as potentiation of carbenicillin-induced antibacterial activity by measuring carbenicillin MIC at 128 ug/ml incubated for 18 hrs (reference value: 64 ug/ml)
[7] = biological target: T1, MexAB/OprM (Pseudomonas aeruginosa (strain ATCC 15692 / DSM 22644 / CIP 104116 / JCM14847 / LMG 12228 / 1C / PRS 101 / PAO1)); assay: Inhibition of MexAB/OprM in Pseudomonas aeruginosa PAO1 assessed as potentiation of chloramphenicol-induced antibacterial activity by measuring chloramphenicol MIC at 128 ug/ml incubated for 18 hrs (reference value: 64 ug/ml)
[8] = biological target: T1, MexAB/OprM (Pseudomonas aeruginosa (strain ATCC 15692 / DSM 22644 / CIP 104116 / JCM14847 / LMG 12228 / 1C / PRS 101 / PAO1)); assay: Inhibition of MexAB/OprM in Pseudomonas aeruginosa PAO1 assessed as potentiation of ciprofloxacin-induced antibacterial activity by measuring ciprofloxacin MIC at 128 ug/ml incubated for 18 hrs (reference value: 1 ug/ml)
[9] = biological target: T1, MexAB/OprM (Pseudomonas aeruginosa (strain ATCC 15692 / DSM 22644 / CIP 104116 / JCM14847 / LMG 12228 / 1C / PRS 101 / PAO1)); assay: Inhibition of MexAB/OprM in Pseudomonas aeruginosa PAO1 assessed as potentiation of novobiocin-induced antibacterial activity by measuring novobiocin MIC at 128 ug/ml incubated for 18 hrs (reference value: 512 ug/ml)
[10] = tested on: Escherichia coli; assay: Potentiation of novobiocin-induced antibacterial activity against Escherichia coli W3110 assessed as novobiocin MIC at 64 ug/ml after 20 hrs by liquid microdilution method (reference value: 128 ug/ml); assay type: functional; conditions: K-12 substr. W3110, 20 h
[11] = tested on: Escherichia coli; assay: Potentiation of erythromycin-induced antibacterial activity against Escherichia coli W3110 assessed as erythromycin MIC at 64 ug/ml after 20 hrs by liquid microdilution method (reference value: 64 ug/ml); assay type: functional; conditions: K-12 substr. W3110, 20 h
[12] = tested on: Bacteroides fragilis; conditions: 78C004
Description: Inhibition of beta-lactamase in Bacteroides fragilis 78C004 assessed as potentiation of benzylpenicillin-induced antibacterial activity by measuring benzylpenicillin MIC at 3.12 ug/ml (Rvb = 200 ug/ml)

[13] = tested on: Staphylococcus epidermidis; conditions: 01B116
Description: Inhibition of beta-lactamase in Staphylococcus epidermidis 01B116 assessed as potentiation of benzylpenicillin-induced antibacterial activity by measuring benzylpenicillin MIC at 3.12 ug/ml (Rvb >25 ug/ml)

[14] = biological target: Beta-lactamase (Staphylococcus aureus) (UniProt P00807); conditions: 01A400
Sequence of Beta-lactamase (Staphylococcus aureus) (P00807 whole entry): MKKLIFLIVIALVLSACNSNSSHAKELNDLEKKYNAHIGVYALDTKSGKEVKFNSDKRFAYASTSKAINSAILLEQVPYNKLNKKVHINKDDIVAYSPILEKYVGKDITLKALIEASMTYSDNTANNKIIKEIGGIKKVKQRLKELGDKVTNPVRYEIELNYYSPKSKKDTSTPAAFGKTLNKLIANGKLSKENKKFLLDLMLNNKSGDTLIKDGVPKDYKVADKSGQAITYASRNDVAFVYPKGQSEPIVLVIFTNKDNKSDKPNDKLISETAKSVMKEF
Description: Inhibition of penicillinase in Staphylococcus aureus 01A400 assessed as potentiation of benzylpenicillin-induced antibacterial activity by measuring benzylpenicillin MIC at 3.12 ug/ml (Rvb = 200 ug/ml)

[15] = tested on: Haemophilus influenzae; conditions: 54A042
[16] = tested on: Klebsiella pneumoniae; assay: Potentiation of meropenem-induced antibacterial activity against Klebsiella pneumoniae N11-2218 harboring NDM1 infected in CD1 mouse assessed as mouse survival at 30 mg/kg, sc administered 30 mins post infection and measured 5 days post infection (reference value: 0%); assay type: functional; conditions: N11-2218, sc
[17] = biological target: Metallo-beta-lactamase type 2 (Klebsiella pneumoniae) (UniProt C7C422); assay: Inhibition of beta-lactamase NDM-1 in Klebsiella pneumoniae N11-2218 assessed as potentiation of meropenem-induced antibacterial activity by measuring meropenem MIC at 8 ug/ml (Rvb =32 ug/ml)
Sequence of Metallo-beta-lactamase type 2 (Klebsiella pneumoniae) (C7C422 whole entry): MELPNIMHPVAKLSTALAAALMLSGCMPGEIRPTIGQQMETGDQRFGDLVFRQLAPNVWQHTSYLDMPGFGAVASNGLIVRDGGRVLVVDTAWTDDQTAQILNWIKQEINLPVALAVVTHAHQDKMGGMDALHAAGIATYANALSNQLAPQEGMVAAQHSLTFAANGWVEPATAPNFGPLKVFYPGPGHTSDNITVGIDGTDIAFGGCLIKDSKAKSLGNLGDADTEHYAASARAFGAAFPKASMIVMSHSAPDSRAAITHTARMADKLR

`Cc1c([N+](=O)[O-])ccc2c(NCCN3CCCCC3)ccnc12` showed an MIC [1] of 16 µg/mL, an MIC [2] of 0.5 µg/mL and an MIC [3] of 2 µg/mL.
Molecule `O=C(O[C@@H]1Cc2c(O)cc(O)cc2O[C@@H]1c1cc(O)c(O)c(O)c1)c1cc(O)c(O)c(O)c1` has an MIC [4] of 32 µg/mL, an MIC [5] of 2 µg/mL and an MIC [6] of 64 µg/mL. The MIC [7] was 16 µg/mL, the MIC [8] was 0.5 µg/mL and the MIC [9] was 128 µg/mL.
For `Cl.Cl.Cl.Cl.NCCCNCCCCNCCCNC(=O)Cc1cccc2ccccc12`, the MIC [10] was 1 µg/mL and the MIC [11] was 4 µg/mL.
For `CC1(C)[C@H](C(=O)O)N2C(=O)C[C@H]2S1(=O)=O`, the MIC [12] was 3.12 µg/mL (≈ 13.4 µM), the MIC [13] was 1.56 µg/mL (≈ 6.69 µM) and the MIC [14] was 1.56 µg/mL (≈ 6.69 µM). It also gave an MIC [15] of 1.56 µg/mL (≈ 6.69 µM).
Molecule `N[C@H](CN[C@H](CN[C@@H](CC(=O)O)C(=O)O)C(=O)O)C(=O)O` has a survival at 30 mg/kg [16] of 95% and an MIC [17] of 1 µg/mL.
